Source: paper PMC9860980, “Pharmacokinetics and Pharmacodynamics (PK/PD) of Corallopyronin A against Methicillin-Resistant Staphylococcus aureus” (Pharmaceutics, 2022)
Read-outs that look alike come from different tables or passages of the source.

How the values were obtained:
[1] = Pharmacokinetics of CorA in plasma of CD-1 mice; assay type: in vivo; conditions: for Tmax / CL/F / Cmax / MRT / half-life / Vd/F / AUC0-t: CD-1 mice; for Vd/F: read-out: Vz/F_obs
Protocol: For pharmacokinetic (PK) experiments, 6–8-week-old outbred female CD-1 mice (Charles River, Germany) were used. CorA was dissolved in PEG400/phosphate-buffered saline (PBS) (80:20 (v/v)). CorA was administered once daily at 60 mg/kg intraperitoneally (IP), 100 mg/kg IP, 100 mg/kg subcutaneously (SC) and 100 mg/kg perorally (PO). Moreover, CorA was administered at 30 mg/kg IP twice a day (BID) (administration time points t = 0 and 6 h after first dose). Animals (n = 3 per time point) receiving either 60 mg/kg IP or 100 mg/kg IP were euthanized at 10, 15, 30, 60 and 180 min after administration. Animals (n = 3 per time point) receiving 30 mg/kg IP BID were euthanized at 0.167, 0.25, 0.5, 1, 3, 5.75, 6.167, 6.25, 6.5, 7 and 9 h after first administration. Animals (n = 3 per time point) receiving 100 mg/kg SC or 100 mg/kg PO were euthanized at 0.25, 1, 2, 4 and 8 h after administration. At every time point blood was removed from the heart, collected into tubes coated with 0.5 M ethylenediaminetetraacetic acid (EDTA), immediately spun down at 15,870× g for 10 min at 4 °C and the resultant plasma transferred into a new tube. Furthermore, at every time point heart, lung, brain, liver, spleen, kidneys, and thigh muscles were removed and frozen in liquid nitrogen. For animals receiving 100 mg/kg PO also rectum (without feces), pharynx, skin, vaginal tract, subcutaneous fat tissue, visceral fat tissue and tibiae were removed and frozen in liquid nitrogen. Before removing the vaginal tract, a vaginal flush was performed.
CorA plasma concentrations were quantified by HPLC-DAD with an Alliance e2695 separation module and a 2998 PDA detector (Waters, Eschborn, Germany). For the analysis, blood samples were centrifuged for 10 min at 4 °C and 3220× g. The generated plasma (20 µL) was mixed 1:3 with ice-cold acetonitrile, vortexed for 10 s and centrifuged for 25 min at 4 °C and 11,000× g. The supernatant was transferred into a HPLC vial and a sample volume of 5 µL was injected and quantified at a wavelength of 300 nm. A Waters XBridge® Shield RP18 column (3.5 μm, 2.1 × 100 mm, 130 A) was used at 30 °C. Two solvent gradients comprising mobile phase A (acetonitrile/water 5/95 with 5 mM ammonium acetate and 40 μL acetic acid per liter) and mobile phase B (acetonitrile/water 95/5 with 5 mM ammonium acetate and 40 μL acetic acid per liter) with a gradient from 70%A/30%B to 20%A/80%B, stepwise within 30 min and a flow rate of 0.3 mL/min were used. Data were analyzed by Empower 3 software and quantified using an external reference standard. No major matrix effects were seen when mixing ACN containing CorA with plasma.
Caffeine was used as an internal standard.

MRSA = conditions: against MRSA; cited from earlier work
[2] = female, mouse, plasma, 30 mg/kg IP (BID), mean ± SD
[3] = female, mouse, plasma, 60 mg/kg IP, mean ± SD
[4] = female, mouse, plasma, 100 mg/kg IP, mean ± SD
[5] = female, mouse, plasma, 100 mg/kg PO

What does the source list for `C/C=C/C/C=C(\C)C(O)CC/C(C)=C/C=C(\C)C(=O)c1c(O)cc([C@H](C)CC/C=C/NC(=O)OC)oc1=O` (stereo partly drawn) [CorA, Corallopyronin A]?
time CorA was found in plasma after dosing ([1]; 100 mg/kg PO): up to 8 h; exposure in plasma lower compared to the same dose administered IP or SC ([1]; 100 mg/kg PO vs 100 mg/kg IP or SC): 3- to 4 fold; Tmax ([1]; female, CD-1, mouse, plasma, ip, 30 mg/kg, 30 mg/kg IP (BID), mean ± SD): 0.19 h; Tmax ([1]; female, CD-1, mouse, plasma, ip, 60 mg/kg, 60 mg/kg IP, mean ± SD): 0.19 h; Tmax ([1]; female, CD-1, mouse, plasma, ip, 100 mg/kg, 100 mg/kg IP, mean ± SD): 0.19 h; Tmax ([1]; female, CD-1, mouse, plasma, po, 100 mg/kg, 100 mg/kg PO): 0.5 ± 0.4 h; Tmax ([1]; female, CD-1, mouse, plasma, sc, 100 mg/kg, 100 mg/kg SC, mean ± SD): 3.33 ± 1.2 h; concentration at 8 h ([1]; female, CD-1, mouse, plasma, subcutaneous, 100 mg/kg SC, 8 h after dosing): > 10 µg/mL; CL/F [1, 2]: 0.89 mL/min/kg; Cmax [1, 2]: 194 ± 15.6 µg/mL; MRT [1, 2]: 3.61 ± 0.6 h; half-life [1, 2]: 2.33 ± 0.3 h; Vd/F [1, 2]: 0.18 L/kg; CL/F [1, 3]: 1.8 mL/min/kg; Cmax [1, 3]: 416 ± 39.1 µg/mL; MRT [1, 3]: 1.55 ± 0.2 h; half-life [1, 3]: 1.1 ± 0.2 h; Vd/F [1, 3]: 0.17 L/kg; CL/F [1, 4]: 3.43 ± 0.4 mL/min/kg; Cmax [1, 4]: 349 ± 12.4 µg/mL; MRT [1, 4]: 2.51 ± 1 h; half-life [1, 4]: 1.87 ± 0.8 h; Vd/F [1, 4]: 0.54 ± 0.2 L/kg; CL/F [1, 5]: 16.4 ± 4 mL/min/kg; Cmax [1, 5]: 89.8 ± 43.8 µg/mL; MRT [1, 5]: 3.13 ± 0.2 h; half-life [1, 5]: 2.88 ± 0.6 h; AUC0-t ([1]; female, mouse, plasma, 100 mg/kg PO, read-out: AUC 0-t): 94 ± 27.1 µg·h/mL; Vd/F [1, 5]: 4.09 ± 1.3 L/kg; Cmax ([1]; female, mouse, plasma, 100 mg/kg SC, mean ± SD): 107 ± 59.2 µg/mL; AUC0-t ([1]; plasma, 30 mg/kg IP (BID), mean ± SD): 303.88 ± 21.9 µg·h/mL; AUC0-t ([1]; plasma, 60 mg/kg IP, mean ± SD): 463.87 ± 18.8 µg·h/mL; AUC0-t ([1]; plasma, 100 mg/kg IP, mean ± SD): 339.53 ± 28.4 µg·h/mL; Cmax lower compared to the same dose administered IP ([1]; plasma, 100 mg/kg PO vs 100 mg/kg IP): 3- to 4 fold; AUC0-t ([1]; plasma, 100 mg/kg SC, mean ± SD): 459.32 ± 238.2 µg·h/mL; in vitro minimal inhibitory concentration (MIC) (MRSA): 0.125 µg/mL
